Molecular target: T1, CHK1 kinase (Homo sapiens, UniProt O14757)
T1 construct: The kinase domain is expressed in baculovirus and purified by the GST tag; GST; made in house
T1 sequence (O14757 9-265 limits assumed): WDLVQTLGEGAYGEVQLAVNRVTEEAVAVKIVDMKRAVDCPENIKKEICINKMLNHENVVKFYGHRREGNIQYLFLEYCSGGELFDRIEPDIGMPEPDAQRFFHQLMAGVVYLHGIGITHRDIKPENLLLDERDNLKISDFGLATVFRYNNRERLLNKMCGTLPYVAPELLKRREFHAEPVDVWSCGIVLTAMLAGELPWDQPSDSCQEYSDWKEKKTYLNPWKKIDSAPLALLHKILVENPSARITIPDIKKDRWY
Experiment: Checkpoint Kinase 1 Assay (Scintillation Proximity Assay)
Assay type: biochemical
Experimental: Checkpoint Kinase 1 Assay: This in vitro assay measures the inhibition of CHK1 kinase by compounds. The kinase domain is expressed in baculovirus and purified by the GST tag. Purified protein and biotinylated peptide substrate (Cdc25C) is then used in a 384 well automated Scintillation Proximity Assay (SPA). Specifically, peptide, enzyme and reaction buffer are mixed and aliquoted into a 384 well plate containing dilution series of compounds and controls. Cold and hot ATP are then added to initiate the reaction. After 2 hours, a SPA bead slurry, […] and EDTA are added to stop the reaction and capture the biotinylated peptide. Plates are then counted on a Topcount. Data is analyzed and IC50s determined for individual compounds.

| IC50 | SMILES |
| --- | --- |
| 0.14 nM | COc1ccc(F)cc1-c1cc(C(=O)N[C@H]2CCCCNC2)c(NC(N)=O)s1 [Example 97] |
| 0.12 nM | O=C(Nc1cnccn1)Nc1cc(-c2ccc(Cl)cc2)sc1C(=O)N[C@H]1CCCNC1 [Example 263, 5-(4-Chloro-phenyl)-3-(3-pyrazin-2-yl-ureido)-thiophene-2-carboxylic acid (S)-piperidin-3-ylamide] |

Source: patent publication US20070010556A1, “Thiophene derivatives as chk 1 inhibitors” (ASTRAZENECA AB, priority 2004, published 2007)
